Measurements as given in patent publication US10399940B2, “Substituted pyrrolidines and methods of use” (AbbVie S.à.r.l., priority 2016, dated 2019).
Where two headings read alike, the source gives them in different places.

Target: T1, F508delCFTR (Homo sapiens, UniProt P13569, DEL508-508)
T1 construct: expressed in transfected cells; host or cells: CFBE41o- (human lung derived epithelial cell line), doxycycline-inducible expression
Experiment: Cell Surface Expression-Horse Radish Peroxidase (CSE-HRP) assay
Assay type: cell-based
Details: CFBE41o-F508delCFTR-HRP cells; for Maximum % activity (with co-corrector): with co-corrector (2 μM); for Maximum % activity (with co-corrector) / Maximum % activity (without co-corrector): normalized to on-plate positive control, highest concentration 20 μM
How it was run: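 CFBE41o- cells expressed F508delCFTR with HRP in the fourth exofacial loop, induced by 0.5 μg/mL doxycycline for 72 h at 37 °C. Compounds alone or with 2 μM co-corrector ran 18–24 h at 33 °C, 8-point 3-fold from 20 μM. Washed-cell luminol luminescence was normalized to DMSO and positive control, fitted sigmoidally for EC50 (three plates).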

[1] = test compound without co-corrector, 18-24 hours at 33° C., read-out: EC50 (without co-corrector)
[2] = with co-corrector (2 μM of 3-[(2R,4R)-4-({[1-(2,2-difluoro-1,3-benzodioxol-5-yl)cyclopropyl]carbonyl}amino)-7-methoxy-3,4-dihydro-2H-chromen-2-yl]benzoic acid), read-out: EC50 (with co-corrector)

T1 sequence (P13569 with tags, fused parts or gaps DEL508-508): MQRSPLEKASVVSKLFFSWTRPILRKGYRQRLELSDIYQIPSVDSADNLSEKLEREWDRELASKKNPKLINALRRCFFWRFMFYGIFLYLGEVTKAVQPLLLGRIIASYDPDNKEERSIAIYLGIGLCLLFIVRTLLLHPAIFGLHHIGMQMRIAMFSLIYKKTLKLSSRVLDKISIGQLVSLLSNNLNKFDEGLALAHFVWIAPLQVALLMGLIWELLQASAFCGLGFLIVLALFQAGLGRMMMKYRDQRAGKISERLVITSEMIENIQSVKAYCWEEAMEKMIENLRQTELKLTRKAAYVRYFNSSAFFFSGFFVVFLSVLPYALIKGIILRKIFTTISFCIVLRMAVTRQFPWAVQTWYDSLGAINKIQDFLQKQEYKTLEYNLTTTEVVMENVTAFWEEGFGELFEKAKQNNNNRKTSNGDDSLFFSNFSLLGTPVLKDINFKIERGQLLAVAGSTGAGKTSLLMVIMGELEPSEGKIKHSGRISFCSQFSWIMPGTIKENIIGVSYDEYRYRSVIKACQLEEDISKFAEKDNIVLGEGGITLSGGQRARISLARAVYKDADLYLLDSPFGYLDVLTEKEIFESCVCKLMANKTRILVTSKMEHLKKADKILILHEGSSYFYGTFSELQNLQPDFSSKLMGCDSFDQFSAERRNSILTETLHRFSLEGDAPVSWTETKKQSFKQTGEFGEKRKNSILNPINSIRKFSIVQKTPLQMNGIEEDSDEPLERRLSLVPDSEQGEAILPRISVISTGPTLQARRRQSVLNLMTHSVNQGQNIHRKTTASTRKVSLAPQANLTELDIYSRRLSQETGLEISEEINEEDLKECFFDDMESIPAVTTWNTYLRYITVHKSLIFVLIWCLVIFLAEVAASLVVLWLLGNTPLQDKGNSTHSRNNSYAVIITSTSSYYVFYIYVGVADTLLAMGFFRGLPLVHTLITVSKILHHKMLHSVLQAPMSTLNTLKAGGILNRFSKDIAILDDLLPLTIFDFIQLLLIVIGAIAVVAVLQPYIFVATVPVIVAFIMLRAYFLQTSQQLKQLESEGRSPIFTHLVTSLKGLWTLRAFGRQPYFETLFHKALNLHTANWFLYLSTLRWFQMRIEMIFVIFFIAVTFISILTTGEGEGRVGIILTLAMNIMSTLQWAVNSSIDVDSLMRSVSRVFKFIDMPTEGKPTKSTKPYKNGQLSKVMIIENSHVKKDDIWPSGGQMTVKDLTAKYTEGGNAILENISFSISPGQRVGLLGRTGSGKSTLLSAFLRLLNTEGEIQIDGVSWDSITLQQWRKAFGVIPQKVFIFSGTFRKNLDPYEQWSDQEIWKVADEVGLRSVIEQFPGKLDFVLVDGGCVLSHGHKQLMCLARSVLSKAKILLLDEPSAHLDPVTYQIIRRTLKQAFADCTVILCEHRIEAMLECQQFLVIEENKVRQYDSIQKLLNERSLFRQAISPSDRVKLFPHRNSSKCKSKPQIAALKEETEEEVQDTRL

Row | SMILES | EC50 [1] [nM] | EC50 [2] [nM] | Maximum % activity (with co-corrector) | Maximum % activity (without co-corrector)
1 | COc1ccc(-c2ccccc2)cc1CO[C@H]1[C@H](C(C)(C)C)[C@@H](C(=O)O)N(C(=O)[C@@H]2CCC[C@@H](OC)C2)[C@H]1c1ccccc1 [Example 39, (2S,3R,4S,5S)-3-tert-butyl-4-[(4-methoxy[1,1′-biphenyl]-3-yl)methoxy]-1-[(1R,3R)-3-methoxycyclohexane-1-carbonyl]-5-phenylpyrrolidine-2-carboxylic acid] | 1000 to 10000 | 1000 to 10000 | +++ (≥350) | +++ (≥200)
2 | COc1ncc(C2CCC2)cc1CO[C@H]1[C@H](C(C)(C)C)[C@@H](C(=O)O)N(C(=O)OC(C)C)[C@H]1c1ccccc1 [Example 45, (2S,3R,4S,5S)-3-tert-butyl-4-[(5-cyclobutyl-2-methoxypyridin-3-yl)methoxy]-5-phenyl-1-{[(propan-2-yl)oxy]carbonyl}pyrrolidine-2-carboxylic acid] | 1000 to 10000 | 1000 to 10000 | +++ (≥350) | ++ (≥100 and <200)
3 | COc1ccc(C(C)(C)C)cc1CO[C@H]1[C@H](C(C)(C)C)[C@@H](C(=O)O)N(C(=O)OC(C)C)[C@H]1c1ccccc1 [Example 47, (2S,3R,4S,5S)-3-tert-butyl-4-[(5-tert-butyl-2-methoxyphenyl)methoxy]-5-phenyl-1-{[(propan-2-yl)oxy]carbonyl}pyrrolidine-2-carboxylic acid] | 1000 to 10000 | 1000 to 10000 | +++ (≥350) | +++ (≥200)
4 | COc1ncc(C(F)(F)F)cc1CO[C@H]1[C@H](C(C)(C)C)[C@@H](C(=O)O)N(C(=O)C2CCCCC2)[C@H]1c1ccccc1F [Example 48, (2S,3R,4S,5S)-3-tert-butyl-1-(cyclohexanecarbonyl)-5-(2-fluorophenyl)-4-{[2-methoxy-5-(trifluoromethyl)pyridin-3-yl]methoxy}pyrrolidine-2-carboxylic acid] | 1000 to 10000 | 1000 to 10000 | +++ (≥350) | ++ (≥100 and <200)
5 | COc1ccc(C(F)(F)F)cc1CO[C@H]1[C@H](C(C)(C)C)[C@@H](C(=O)O)N(C(=O)C2CCCCC2)[C@H]1c1ccccc1F [Example 49, (2S,3R,4S,5S)-3-tert-butyl-1-(cyclohexanecarbonyl)-5-(2-fluorophenyl)-4-{[2-methoxy-5-(trifluoromethyl)phenyl]methoxy}pyrrolidine-2-carboxylic acid] | 1000 to 10000 | 1000 to 10000 | +++ (≥350) | ++ (≥100 and <200)
6 | COc1ccc(C(C)(C)C)cc1CO[C@H]1[C@H](C(C)(C)C)[C@@H](C(=O)O)N(C(=O)C2CCCCC2)[C@H]1c1ccccc1F [Example 50, (2S,3R,4S,5S)-3-tert-butyl-4-[(5-tert-butyl-2-methoxyphenyl)methoxy]-1-(cyclohexanecarbonyl)-5-(2-fluorophenyl)pyrrolidine-2-carboxylic acid] | < 1000 | < 1000 | +++ (≥350) | +++ (≥200)

Results, then the compound that gave them:

Row | EC50 [1] [nM] | EC50 [2] [nM] | Maximum % activity (with co-corrector) | Maximum % activity (without co-corrector) | SMILES
7 | 1000 to 10000 | 1000 to 10000 | +++ (≥350) | +++ (≥200) | COc1ccc(Br)cc1CO[C@H]1[C@H](C(C)(C)C)[C@@H](C(=O)O)N(C(=O)[C@@H]2CCC[C@@H](OC)C2)[C@H]1c1ccccc1 [Example 37, (2S,3R,4S,5S)-4-[(5-bromo-2-methoxyphenyl)methoxy]-3-tert-butyl-1-[(1R,3R)-3-methoxycyclohexane-1-carbonyl]-5-phenylpyrrolidine-2-carboxylic acid]
8 | 1000 to 10000 | 1000 to 10000 | +++ (≥350) | ++ (≥100 and <200) | COc1ccc(-c2ccccc2)cc1CO[C@H]1[C@H](C(C)(C)C)[C@@H](C(=O)O)N(C(=O)OC(C)C)[C@H]1c1ccccc1 [Example 38, (2S,3R,4S,5S)-3-tert-butyl-4-[(4-methoxy[1,1′-biphenyl]-3-yl)methoxy]-5-phenyl-1-{[(propan-2-yl)oxy]carbonyl}pyrrolidine-2-carboxylic acid]
9 | 1000 to 10000 | 1000 to 10000 | +++ (≥350) | ++ (≥100 and <200) | COc1ncc(Br)cc1CO[C@H]1[C@H](C(C)(C)C)[C@@H](C(=O)O)N(C(=O)OC(C)C)[C@H]1c1ccccc1 [Example 40, (2S,3R,4S,5S)-4-[(5-bromo-2-methoxypyridin-3-yl)methoxy]-3-tert-butyl-5-phenyl-1-{[(propan-2-yl)oxy]carbonyl}pyrrolidine-2-carboxylic acid]
10 | < 1000 | < 1000 | +++ (≥350) | ++ (≥100 and <200) | COc1ncc(C(F)(F)F)cc1CO[C@H]1[C@H](C(C)(C)C)[C@@H](C(=O)O)N(C(=O)C2CCCCC2)[C@H]1c1ccccc1 [Example 41, (2S,3R,4S,5S)-3-tert-butyl-1-(cyclohexanecarbonyl)-4-{[2-methoxy-5-(trifluoromethyl)pyridin-3-yl]methoxy}-5-phenylpyrrolidine-2-carboxylic acid]
11 | 1000 to 10000 | 1000 to 10000 | +++ (≥350) | + (<100) | COc1ncc(-c2ccccc2)cc1CO[C@H]1[C@H](C(C)(C)C)[C@@H](C(=O)O)N(C(=O)OC(C)C)[C@H]1c1ccccc1 [Example 42, (2S,3R,4S,5S)-3-tert-butyl-4-[(2-methoxy-5-phenylpyridin-3-yl)methoxy]-5-phenyl-1-{[(propan-2-yl)oxy]carbonyl}pyrrolidine-2-carboxylic acid]
12 | 1000 to 10000 | 1000 to 10000 | +++ (≥350) | + (<100) | COc1ncc(C2CCCCC2)cc1CO[C@H]1[C@H](C(C)(C)C)[C@@H](C(=O)O)N(C(=O)OC(C)C)[C@H]1c1ccccc1 [Example 43, (2S,3R,4S,5S)-3-tert-butyl-4-[(5-cyclohexyl-2-methoxypyridin-3-yl)methoxy]-5-phenyl-1-{[(propan-2-yl)oxy]carbonyl}pyrrolidine-2-carboxylic acid]
13 | 1000 to 10000 | 1000 to 10000 | +++ (≥350) | + (<100) | COc1ncc(C2CCCC2)cc1CO[C@H]1[C@H](C(C)(C)C)[C@@H](C(=O)O)N(C(=O)OC(C)C)[C@H]1c1ccccc1 [Example 44, (2S,3R,4S,5S)-3-tert-butyl-4-[(5-cyclopentyl-2-methoxypyridin-3-yl)methoxy]-5-phenyl-1-{[(propan-2-yl)oxy]carbonyl}pyrrolidine-2-carboxylic acid]
14 | < 1000 | < 1000 | +++ (≥350) | +++ (≥200) | COc1ccc(C(C)(C)C)cc1CO[C@H]1[C@H](C(C)(C)C)[C@@H](C(=O)O)N(C(=O)[C@@H]2CCC[C@@H](OC)C2)[C@H]1c1ccccc1 [Example 46, (2S,3R,4S,5S)-3-tert-butyl-4-[(5-tert-butyl-2-methoxyphenyl)methoxy]-1-[(1R,3R)-3-methoxycyclohexane-1-carbonyl]-5-phenylpyrrolidine-2-carboxylic acid]
